The molecules below were run on N. fowleri strain Nf69 (ATCC 30215) trophozoites (assay: Determination of EC50 values against Naegleria fowleri (growth inhibition, CellTiter Glo, 48 h)). Conditions: ATCC30215, N. fowleri Nf69 trophozoites, 48 h culture, 37° C., CellTiter Glo luminescence, read-out: EC50 uM against N. fowleri.
Format: cell-based
Experimental: N. fowleri strain Nf69 (ATCC 30215) trophozoites were cultured axenically. Amoeba were seeded at […] in 100 μL of the indicated medium in white TC-treated 96-well plates (Thermo Scientific Nunc Microwell 136101). Cells were seeded into Nelson's Complete Media (NCM, 0.17% liver infusion broth (BD Difco, Franklin Lakes, NJ), 0.17% glucose, 0.012% sodium chloride, 0.0136% potassium phosphate monobasic, 0.0142% sodium phosphate dibasic, 0.0004% calcium chloride, 0.0002% magnesium sulfate, 10% heat-inactivated fetal bovine serum (FBS), 1% penicillin-streptomycin) at 37° C. in 96-well tissue culture plates. Vehicle or compound at concentrations initially ranging from 20 to 0.375 μM were added to cells, followed by culture for 48 h (37° C., 5% CO2). Plates were equilibrated to rt for 15 min and CellTiter Glo reagent was added followed by orbital shaking for 2 min. After an additional incubation (rt, 10 min), luminescence was scored on a BioTek Synergy H1 microplate reader. Luminescence values were used to calculate percent cell growth inhibition (based on controls) for each concentration of compound tested. Averages of triplicates were calculated and fit to dose-response curves for the determination of EC50 values, using Prism 9.0 (GraphPad Software, San Diego, CA). […] Other controls included media alone, cells and media, and vehicle and media. For very potent compounds, concentration of reagent in the dose-response assays were reduced to provide an appropriate range for EC50 value resolution.
Compounds of the present technology were tested for growth inhibition of N. fowleri per General Procedure 13, above.

`O=c1c2cc(Cl)c(Cl)cc2nc2n1CC[C@@H]1[C@@H]2CCCN1Cc1ccc(Cl)cc1` (racemic) [Compound 7t, (±)-(4aR,13bS)-10,11-dichloro-4-(4-chlorobenzyl)-1,2,3,4,4a,5,6,13b-octahydro-8H-[1,6]naphthyridino[5,6-b]quinazolin-8-one] and `O=c1c2cc(Cl)c(Cl)cc2nc2n1CC[C@@H]1[C@@H]2CCCN1Cc1ccc(C(F)(F)F)cc1` (racemic) [Compound 7u, (±)-(4aR,13bS)-10,11-dichloro-4-(4-(trifluoromethyl)benzyl)-1,2,3,4,4a,5,6,13b-octahydro-8H-[1,6]naphthyridino[5,6-b]quinazolin-8-one] cannot be ordered by EC50: greater than 10 µM for the first, greater than 10 µM for the second.

First: O=c1c2cc(Cl)c(Cl)cc2nc2n1CC[C@@H]1[C@@H]2CCCN1Cc1ccc(Cl)cc1Cl (racemic) [Compound 7v, (±)-(4aR,13bS)-10,11-dichloro-4-(2,4-dichlorobenzyl)-1,2,3,4,4a,5,6,13b-octahydro-8H-[1,6]naphthyridino[5,6-b]quinazolin-8-one]
Second: CN1CCC[C@H]2c3nc4cc(Cl)c(Cl)cc4c(=O)n3CC[C@H]21 (racemic) [cis-5q, (±)-(4aR,13bR)-10,11-dichloro-4-methyl-1,2,3,4,4a,5,6,13b-octahydro-8H-[1,6]naphthyridino[5,6-b]quinazolin-8-one]
The EC50 of the first is higher: greater than 10 µM for the first, 0.1 to 1 µM for the second. The second is the more potent here.

`CN1CCC[C@H]2c3nc4ccccc4c(=O)n3CC[C@H]21` (racemic) [cis-5a, (±)-(4aR,13bR)-4-methyl-1,2,3,4,4a,5,6,13b-octahydro-8H-[1,6]naphthyridino[5,6-b]quinazolin-8-one] and `CN1CC[C@H]2c3nc4ccccc4c(=O)n3CC[C@H]21` (racemic) [cis-5cc, (±)-(3aR,12bR)-3-methyl-2,3,3a,4,5,12b-hexahydropyrrolo[3′,2′:3,4]pyrido[2,1-b]quinazolin-7(1H)-one] cannot be ordered by EC50: greater than 10 µM for the first, greater than 10 µM for the second.

`Cc1cccc2nc3n(c(=O)c12)CC[C@@H]1[C@H]3CCCN1C` (racemic) [cis-5b, (±)-(4aR,13bR)-4,9-dimethyl-1,2,3,4,4a,5,6,13b-octahydro-8H-[1,6]naphthyridino[5,6-b]quinazolin-8-one] and `CN1CCC[C@H]2c3nc4cccc(Cl)c4c(=O)n3CC[C@H]21` (racemic) [cis-5c, (±)-(4aR,13bR)-9-chloro-4-methyl-1,2,3,4,4a,5,6,13b-octahydro-8H-[1,6]naphthyridino[5,6-b]quinazolin-8-one] cannot be ordered by EC50: greater than 10 µM for the first, greater than 10 µM for the second.

First: CN1CCC[C@H]2c3nc4ccc(Cl)cc4c(=O)n3CC[C@H]21 (racemic) [cis-5d, (±)-(4aR,13bR)-10-chloro-4-methyl-1,2,3,4,4a,5,6,13b-octahydro-8H-[1,6]naphthyridino[5,6-b]quinazolin-8-one]
Second: CN1CC[C@H]2c3nc4ccc(Cl)cc4c(=O)n3CC[C@H]21 (racemic) [cis-5hh, (±)-(3aR,12bR)-9-chloro-3-methyl-2,3,3a,4,5,12b-hexahydropyrrolo[3′,2′:3,4]pyrido[2,1-b]quinazolin-7(1H)-one]
The EC50 of the first is lower: 1 to 10 µM for the first, greater than 10 µM for the second. The first is the more potent here.

`COc1cccc2c(=O)n3c(nc12)[C@@H]1CCN(C)[C@@H]1CC3` (racemic) [cis-5dd, (±)-(3aR,12bR)-11-methoxy-3-methyl-2,3,3a,4,5,12b-hexahydropyrrolo[3′,2′:3,4]pyrido[2,1-b]quinazolin-7(1H)-one] and `COc1cc(Cl)cc2c(=O)n3c(nc12)[C@@H]1CCCN(C)[C@@H]1CC3` (racemic) [cis-5t, (±)-(4aR,13bR)-10-chloro-12-methoxy-4-methyl-1,2,3,4,4a,5,6,13b-octahydro-8H-[1,6]naphthyridino[5,6-b]quinazolin-8-one] cannot be ordered by EC50: greater than 10 µM for the first, greater than 10 µM for the second.

First: CN1CCC[C@H]2c3nc4ccc(Br)cc4c(=O)n3CC[C@H]21 (racemic) [cis-5e, (±)-(4aR,13bR)-10-bromo-4-methyl-1,2,3,4,4a,5,6,13b-octahydro-8H-[1,6]naphthyridino[5,6-b]quinazolin-8-one]
Second: CN1CCC[C@H]2c3nc4cc(Br)ccc4c(=O)n3CC[C@H]21 (racemic) [cis-5l, (±)-(4aR,13bR)-11-bromo-4-methyl-1,2,3,4,4a,5,6,13b-octahydro-8H-[1,6]naphthyridino[5,6-b]quinazolin-8-one]
The EC50 of the first is lower: 0.1 to 1 µM for the first, 1 to 10 µM for the second. The first is the more potent here.

`CN1CC[C@H]2c3nc4cc(F)c(F)cc4c(=O)n3CC[C@H]21` (racemic) [cis-5ee, (±)-(3aR,12bR)-9,10-difluoro-3-methyl-2,3,3a,4,5,12b-hexahydropyrrolo[3′,2′:3,4]pyrido[2,1-b]quinazolin-7(1H)-one] and `CN1CCC[C@H]2c3nc4cc(F)ccc4c(=O)n3CC[C@H]21` (racemic) [cis-5m, (±)-(4aR,13bR)-11-fluoro-4-methyl-1,2,3,4,4a,5,6,13b-octahydro-8H-[1,6]naphthyridino[5,6-b]quinazolin-8-one] cannot be ordered by EC50: greater than 10 µM for the first, greater than 10 µM for the second.

First: CN1CCC[C@H]2c3nc4ccc(F)cc4c(=O)n3CC[C@H]21 (racemic) [cis-5f, (±)-(4aR,13bR)-10-fluoro-4-methyl-1,2,3,4,4a,5,6,13b-octahydro-8H-[1,6]naphthyridino[5,6-b]quinazolin-8-one]
Second: Cc1ccc2nc3n(c(=O)c2c1)CC[C@@H]1[C@H]3CCCN1C (racemic) [cis-5h, (±)-(4aR,13bR)-4,10-dimethyl-1,2,3,4,4a,5,6,13b-octahydro-8H-[1,6]naphthyridino[5,6-b]quinazolin-8-one]
The EC50 of the first is higher: greater than 10 µM for the first, 1 to 10 µM for the second.

`O=c1c2ccccc2nc2n1CC[C@@H]1[C@H]2CCN1Cc1ccccc1` (racemic) [cis-5ff, (±)-(3aR,12bR)-3-benzyl-2,3,3a,4,5,12b-hexahydropyrrolo[3′,2′:3,4]pyrido[2,1-b]quinazolin-7(1H)-one] and `CN1CCO[C@H]2c3nc4ccccc4c(=O)n3CC[C@H]21` (racemic) [cis-5v, (±)-(4aR,13bR)-4-methyl-3,4,4a,5,6,13b-hexahydro-[1,4]oxazino[2′,3′:3,4]pyrido[2,1-b]quinazolin-8(2H)-one] cannot be ordered by EC50: greater than 10 µM for the first, greater than 10 µM for the second.

First: COc1ccc2nc3n(c(=O)c2c1)CC[C@@H]1[C@H]3CCCN1C (racemic) [cis-5g, (±)-(4aR,13bR)-10-methoxy-4-methyl-1,2,3,4,4a,5,6,13b-octahydro-8H-[1,6]naphthyridino[5,6-b]quinazolin-8-one]
Second: CN1CCC[C@H]2c3nc4ccc(C#N)cc4c(=O)n3CC[C@H]21 (racemic) [cis-5i, (±)-(4aR,13bR)-4-methyl-8-oxo-2,3,4,4a,5,6,8,13b-octahydro-1H-[1,6]naphthyridino[5,6-b]quinazoline-10-carbonitrile]
The EC50 of the first is higher: greater than 10 µM for the first, 1 to 10 µM for the second. The second is the more potent here.

First: COc1cc2nc3n(c(=O)c2cc1Cl)CC[C@@H]1[C@H]3CCCN1C (racemic) [cis-5gg, (±)-(4aR,13bR)-10-chloro-11-methoxy-4-methyl-1,2,3,4,4a,5,6,13b-octahydro-8H-[1,6]naphthyridino[5,6-b]quinazolin-8-one]
Second: COc1cc2nc3n(c(=O)c2cc1OC)CC[C@@H]1[C@H]3CCCN1C (racemic) [cis-5r, (±)-(4aR,13bR)-10,11-dimethoxy-4-methyl-1,2,3,4,4a,5,6,13b-octahydro-8H-[1,6]naphthyridino[5,6-b]quinazolin-8-one]
The EC50 of the first is lower: 0.1 to 1 µM for the first, greater than 10 µM for the second.

Compared with `CN1CCC[C@H]2c3nc4ccc(C(F)(F)F)cc4c(=O)n3CC[C@H]21` (racemic) [cis-5j, (±)-(4aR,13bR)-4-methyl-10-(trifluoromethyl)-1,2,3,4,4a,5,6,13b-octahydro-8H-[1,6]naphthyridino[5,6-b]quinazolin-8-one], `CN1CCC[C@H]2c3nc4cc(C(F)(F)F)ccc4c(=O)n3CC[C@H]21` (racemic) [cis-5n, (±)-(4aR,13bR)-4-methyl-11-(trifluoromethyl)-1,2,3,4,4a,5,6,13b-octahydro-8H-[1,6]naphthyridino[5,6-b]quinazolin-8-one] is higher in EC50: 0.1 to 1 µM for the first, 1 to 10 µM for the second.

`CN1CCC[C@H]2c3nc4cc(Cl)ccc4c(=O)n3CC[C@H]21` (racemic) [cis-5k, (±)-(4aR,13bR)-11-chloro-4-methyl-1,2,3,4,4a,5,6,13b-octahydro-8H-[1,6]naphthyridino[5,6-b]quinazolin-8-one] and `CN1CCC[C@H]2c3nc4cnccc4c(=O)n3CC[C@H]21` (racemic) [cis-5p, (±)-(4aR,13bR)-4-methyl-1,2,3,4,4a,5,6,13b-octahydro-8H-pyrido[3′,4′:4,5]pyrimido[2,1-f][1,6]naphthyridin-8-one] cannot be ordered by EC50: greater than 10 µM for the first, greater than 10 µM for the second.

Compared with `CN1CCC[C@H]2c3nc4cc(Cl)c(C(F)(F)F)cc4c(=O)n3CC[C@H]21` (racemic) [cis-5s, (±)-(4aR,13bR)-11-chloro-4-methyl-10-(trifluoromethyl)-1,2,3,4,4a,5,6,13b-octahydro-8H-[1,6]naphthyridino[5,6-b]quinazolin-8-one], `CN1CCO[C@H]2c3nc4ccc(C(F)(F)F)cc4c(=O)n3CC[C@H]21` (racemic) [cis-5x, (±)-(4aR,13bR)-4-methyl-10-(trifluoromethyl)-3,4,4a,5,6,13b-hexahydro-[1,4]oxazino[2′,3′:3,4]pyrido[2,1-b]quinazolin-8(2H)-one] is higher in EC50: 0.1 to 1 µM for the first, greater than 10 µM for the second.

Molecule `CN1CCO[C@H]2c3nc4ccc(Cl)cc4c(=O)n3CC[C@H]21` (racemic) [cis-5w, (±)-(4aR,13bR)-10-chloro-4-methyl-3,4,4a,5,6,13b-hexahydro-[1,4]oxazino[2′,3′:3,4]pyrido[2,1-b]quinazolin-8(2H)-one] has an EC50 greater than 10 µM.
